Results: patent US11726088B2, “Sirtuin 4 (SIRT4) lipoamidase activity and uses thereof” (THE TRUSTEES OF PRINCETON UNIVERSITY, priority 2014, dated 2023)
Peptide text beside a SMILES is read from it.

Columns and labels:
PDH = PDH activity assay (immunocapture colorimetric) in fibroblasts stimulated with glutamax; type: cell-based, human; conditions: WT fibroblasts, glutamax 4 mM, versus unstimulated cells
Method: PDH activity assay. The activity of the PDHC in MRC5 derivate cell lines was measured using the Pyruvate Dehydrogenase Enzyme Activity Microplate Assay Kit (Abcam, cat. #ab109902) according to manufacturer's instructions. 1000 μg/well of cultured cell extract from each line being tested was used as input for PDHC binding, and 5 μg/well of pyruvate dehydrogenase from porcine heart (Sigma-Aldrich, cat. #P7032) used as a positive control for the assay. PDH activity was measured by reduction of NAD+ to NADH, coupled to the reduction of a reporter dye to yield a colored reaction product with an increase in absorbance at 450 nm at room temperature. […] Statistical significance was assessed by one-way ANOVA in GraphPad Prism 5. […]
We next investigated a cellular condition known to inhibit PDH activity, and examined the involvement of SIRT4 in this process. […] In agreement with these observations, we detected elevated expression of endogenous SIRT4 in cells stimulated with glutamax (FIG. 3J). To validate the dependence of PDH inhibition on SIRT4 activity, we first measured PDH activity in SIRT4 OE cells stimulated with glutamax. […] It remains to be determined whether residual SIRT4 still functions in these knocked-down lines to decrease PDH activity following glutamax stimulation, or another yet to be identified PDH inhibition mechanism is at play. […]

[1] = tested on: DLAT lipoyl (K132 and K259); test: DLAT lipoyl levels by PRM quantification in glutamax-stimulated cells; type: cell-based, human; conditions: glutamax stimulation, within 48 hr
Method: Lipoyl-lysine SRM assay. The relative abundance of lipoyl-lysine-containing peptides identified from immunoisolated, in-gel digested DLAT (described above) was measured in mitochondria lysates using a selected reaction monitoring (SRM) full-scan tandem mass spectrometry assay. Purified mitochondria were isolated from MRC5 stable cell lines expressing EGFP, SIRT4-EGFP, and SIRT4-targeting shRNA (described above). Mitochondria pellets were lysed by agitation and bath sonication in 100 μL of hot (95° C.) buffer containing 0.1 M ammonium bicarbonate, 5 mM tris(2-carboxyethyl)phosphine, 1 mM nicotinamide, and 0.1% RapiGest. Protein concentration was determined using the Bradford reagent (Sigma). […] Eluates from the same sample were pooled and concentrated to near-dryness, diluted to 8 μL, and half were analyzed by an LC-SRM-MS/MS assay on an LTQ Orbitrap Velos mass spectrometry (Thermofisher Scientific). […] At least four co-eluting XICs (dot-product score of ≥0.95) were used for peak area quantification. […] Peak areas were summed across XICs, exported to Excel, and normalized across biological replicates (n=3-6) using the average chromatographic precursor intensity calculated by RawMeat (Vast Scientific, Inc). Statistical significance was determined by unpaired, two-tailed t-tests in Microsoft Excel. […]

Question: Which PDH activity (PDH) does the source give for `C[C@H](N)C(=O)N[C@@H](CCC(N)=O)C(=O)O` [glutamax] (H-Ala-Gln-OH) here?
Answer: The PDH activity was “significant time-dependent decrease”.

Question: And the DLAT lipoyl levels [1]?
Answer: The DLAT lipoyl levels was “decrease”.
